Several values for one entry are separate records, joined by “and”; a condition that tells them apart may be missing. Equal entries are not always repeated.
Assays:
BT-474 [1] = test: normalised viability (% of control), CellTiter-Blue; higher = more viable cells (about 100 = DMSO control); conditions: incubation time: 72 h
Experimental: (§1)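 DSRT, CellTiter-Blue viability, 72 h incubation. Signal is normalised to DMSO and benzethonium chloride controls. Value is the normalised response at dose 3.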

BT-549 [2] = test: as above; conditions: incubation time: 72 h
Experimental: as §1

CAL-148 [3] = test: as above; conditions: incubation time: 72 h
Experimental: as §1

CAL-51 [4] = test: as above; conditions: incubation time: 72 h
Experimental: as §1

CAL-85-1 [5] = test: as above; conditions: incubation time: 72 h
Experimental: as §1

HCC1599 [6] = test: as above; conditions: incubation time: 72 h
Experimental: as §1

HCC1937 [7] = test: as above; conditions: incubation time: 72 h
Experimental: as §1

HDQ-P1 [8] = test: as above; conditions: incubation time: 72 h
Experimental: as §1

Hs578T [9] = test: as above; conditions: incubation time: 72 h
Experimental: as §1

MDA-MB-231 [10] = test: as above; conditions: incubation time: 72 h
Experimental: as §1

MDA-MB-436 [11] = test: as above; conditions: incubation time: 72 h
Experimental: as §1

MDA-MB-468 [12] = test: as above; conditions: incubation time: 72 h
Experimental: as §1

MFM-223 [13] = test: as above; conditions: incubation time: 72 h
Experimental: as §1

BT-549 [14] = test: normalised viability (% of control), CellTiter-Blue; higher = more viable cells (100 = DMSO, 0 = benzethonium chloride kill control); conditions: incubation time: 72 h
Experimental: (§2)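 DSRT, CellTiter-Blue viability, 72 h incubation. Signal is normalised to DMSO and benzethonium chloride controls. Value is the normalised response at dose 1.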

CAL-120 = test: as above; conditions: incubation time: 72 h
Experimental: as §2

CAL-148 [15] = test: as above; conditions: incubation time: 72 h
Experimental: as §2

CAL-51 [16] = test: as above; conditions: incubation time: 72 h
Experimental: as §2

CAL-85-1 [17] = test: as above; conditions: incubation time: 72 h
Experimental: as §2

DU-4475 = test: as above; conditions: incubation time: 72 h
Experimental: as §2

HCC1143 = test: as above; conditions: incubation time: 72 h
Experimental: as §2

HCC1599 [18] = test: as above; conditions: incubation time: 72 h
Experimental: as §2

HCC1937 [19] = test: as above; conditions: incubation time: 72 h
Experimental: as §2

HDQ-P1 [20] = test: as above; conditions: incubation time: 72 h
Experimental: as §2

Hs578T [21] = test: as above; conditions: incubation time: 72 h
Experimental: as §2

MDA-MB-231 [22] = test: as above; conditions: incubation time: 72 h
Experimental: as §2

MDA-MB-436 [23] = test: as above; conditions: incubation time: 72 h
Experimental: as §2

MDA-MB-453 = test: as above; conditions: incubation time: 72 h
Experimental: as §2

MDA-MB-468 [24] = test: as above; conditions: incubation time: 72 h
Experimental: as §2

MFM-223 [25] = test: as above; conditions: incubation time: 72 h
Experimental: as §2

SK-BR-3 [26] = test: as above; conditions: incubation time: 72 h
Experimental: as §2

BT-474 [27] = test: as above; conditions: 0.1 nM; incubation time: 72 h
Experimental: as §2

SK-BR-3 [28] = test: normalised viability (% of control), CellTiter-Blue; higher = more viable cells (about 100 = DMSO control); conditions: 10 nM; incubation time: 72 h
Experimental: as §1

What does the source list for `COc1nc(N)nc2c1ncn2[C@@H]1O[C@H](CO)[C@@H](O)[C@@H]1O` [Nelarabine]?
normalised viability (BT-474 [1]; 100 nM): 87.4% and 96.1%; normalised viability (BT-549 [2]; 100 nM): 88.7% and 74.2%; normalised viability (CAL-148 [3]; 10 nM): 104% and 85.5%; normalised viability (CAL-51 [4]; 10 nM): 102% and 103%; normalised viability (CAL-85-1 [5]; 10 nM): 94.4% and 97.7%; normalised viability (HCC1599 [6]; 100 nM): 98.1% and 113%; normalised viability (HCC1937 [7]; 100 nM): 93.1% and 85.6%; normalised viability (HDQ-P1 [8]; 10 nM): 82.8% and 82.6%; normalised viability (Hs578T [9]; 100 nM): 75.9% and 85.7%; normalised viability (MDA-MB-231 [10]; 100 nM): 92.8% and 89.7%; normalised viability (MDA-MB-436 [11]; 100 nM): 90.6% and 83.6%; normalised viability (MDA-MB-468 [12]; 100 nM): 104% and 97.9%; normalised viability (MFM-223 [13]; 100 nM): 103% and 101%; normalised viability (BT-549 [14]; 1 nM): 92% and 96.5%; normalised viability (CAL-120; 1 nM): 101% and 102%; normalised viability (CAL-148 [15]; 1 nM): 101% and 110%; normalised viability (CAL-51 [16]; 1 nM): 102% and 99.3%; normalised viability (CAL-85-1 [17]; 1 nM): 105% and 107%; normalised viability (DU-4475; 1 nM): 109% and 118%; normalised viability (HCC1143; 1 nM): 105% and 98.5%; normalised viability (HCC1599 [18]; 1 nM): 121% and 119%; normalised viability (HCC1937 [19]; 1 nM): 94.7% and 81.3%; normalised viability (HDQ-P1 [20]; 1 nM): 77.2% and 91.2%; normalised viability (Hs578T [21]; 1 nM): 99.1% and 107%; normalised viability (MDA-MB-231 [22]; 1 nM): 93.7% and 78.7%; normalised viability (MDA-MB-436 [23]; 1 nM): 98.1% and 89.7%; normalised viability (MDA-MB-453; 1 nM): 101% and 80.4%; normalised viability (MDA-MB-468 [24]; 1 nM): 103% and 92.2%; normalised viability (MFM-223 [25]; 1 nM): 97.6% and 107%; normalised viability (SK-BR-3 [26]; 1 nM): 90% and 95.9%

With `CNC(=O)c1cc(Oc2ccc(NC(=O)Nc3ccc(Cl)c(C(F)(F)F)c3)cc2)ccn1` [Sorafenib] as the compound, how does the normalised viability (BT-474 [1]; 10 nM) read?
Its normalised viability is 114% and 99.3%.

And the normalised viability (CAL-148 [3]; 1 nM)?
Its normalised viability is 102% and 90%.

What about the normalised viability (CAL-51 [4]; 1 nM) of the same compound?
The normalised viability was 114% and 99%.

And the normalised viability (CAL-85-1 [5]; 1 nM)?
The normalised viability was 96.3% and 109%.

What about the normalised viability (HCC1599 [6]; 10 nM) of the same compound?
Its normalised viability is 113% and 129%.

What about the normalised viability (HCC1937 [7]; 10 nM) of the same compound?
Its normalised viability is 83.9% and 84.5%.

What about the normalised viability (HDQ-P1 [8]; 1 nM) of the same compound?
Its normalised viability is 105% and 91.4%.

And the normalised viability (Hs578T [9]; 10 nM)?
Its normalised viability is 90% and 86.3%.

And the normalised viability (MDA-MB-436 [11]; 10 nM)?
The normalised viability was 110% and 113%.

What about the normalised viability (MDA-MB-468 [12]; 10 nM) of the same compound?
Its normalised viability is 114% and 97.8%.

What about the normalised viability (MFM-223 [13]; 10 nM) of the same compound?
Its normalised viability is 94.7% and 95%.

What about the normalised viability (BT-474 [27]) of the same compound?
Its normalised viability is 109% and 85.3%.

And the normalised viability (BT-549 [14]; 0.1 nM)?
The normalised viability was 119% and 96%.

What about the normalised viability (CAL-120; 0.1 nM) of the same compound?
The normalised viability was 97.8% and 95.4%.

What about the normalised viability (CAL-148 [15]; 0.1 nM) of the same compound?
Its normalised viability is 112% and 109%.

And the normalised viability (CAL-51 [16]; 0.1 nM)?
Its normalised viability is 111% and 95.4%.

What about the normalised viability (CAL-85-1 [17]; 0.1 nM) of the same compound?
The normalised viability was 104% and 103%.

And the normalised viability (DU-4475; 0.1 nM)?
The normalised viability was 96.9% and 115%.

And the normalised viability (HCC1143; 0.1 nM)?
Its normalised viability is 109% and 96%.

And the normalised viability (HCC1599 [18]; 0.1 nM)?
The normalised viability was 106% and 123%.

And the normalised viability (HCC1937 [19]; 0.1 nM)?
Its normalised viability is 101% and 85.2%.

What about the normalised viability (Hs578T [21]; 0.1 nM) of the same compound?
Its normalised viability is 113% and 99%.

What about the normalised viability (MDA-MB-231 [22]; 0.1 nM) of the same compound?
The normalised viability was 92.8% and 93.4%.

And the normalised viability (MDA-MB-436 [23]; 0.1 nM)?
Its normalised viability is 88% and 95.8%.

And the normalised viability (MDA-MB-453; 0.1 nM)?
The normalised viability was 109% and 102%.

And the normalised viability (MFM-223 [25]; 0.1 nM)?
Its normalised viability is 102% and 105%.

What about the normalised viability (SK-BR-3 [26]; 0.1 nM) of the same compound?
The normalised viability was 103% and 90.7%.

Which results are given for `CCN(CC)CCNC(=O)c1c(C)[nH]c(/C=C2\C(=O)Nc3ccc(F)cc32)c1C` [Sunitinib]?
normalised viability (BT-474 [1]; 10 nM): 102% and 99.1%; normalised viability (BT-549 [2]; 10 nM): 96.5% and 73.3%; normalised viability (CAL-148 [3]; 1 nM): 96.4% and 97.8%; normalised viability (CAL-51 [4]; 1 nM): 110% and 90.5%; normalised viability (CAL-85-1 [5]; 1 nM): 95.3% and 104%; normalised viability (HCC1599 [6]; 10 nM): 125% and 105%; normalised viability (HCC1937 [7]; 10 nM): 98.6% and 91%; normalised viability (HDQ-P1 [8]; 1 nM): 103% and 99.8%; normalised viability (Hs578T [9]; 10 nM): 96.2% and 90.4%; normalised viability (MDA-MB-231 [10]; 10 nM): 84.8% and 87.2%; normalised viability (MDA-MB-436 [11]; 10 nM): 102% and 107%; normalised viability (MDA-MB-468 [12]; 10 nM): 100% and 107%; normalised viability (MFM-223 [13]; 10 nM): 93.5% and 87.9%; normalised viability (SK-BR-3 [28]): 85.7% and 80.3%; normalised viability (BT-474 [27]): 81% and 89.3%; normalised viability (BT-549 [14]; 0.1 nM): 87.1% and 85%; normalised viability (CAL-148 [15]; 0.1 nM): 104% and 107%; normalised viability (CAL-51 [16]; 0.1 nM): 111% and 96%; normalised viability (CAL-85-1 [17]; 0.1 nM): 89.3% and 104%; normalised viability (DU-4475; 0.1 nM): 101% and 89.2%; normalised viability (HCC1599 [18]; 0.1 nM): 112% and 101%; normalised viability (HCC1937 [19]; 0.1 nM): 91.7% and 88.2%; normalised viability (HDQ-P1 [20]; 0.1 nM): 100% and 93.2%; normalised viability (Hs578T [21]; 0.1 nM): 104% and 115%; normalised viability (MDA-MB-231 [22]; 0.1 nM): 82.2% and 85.6%; normalised viability (MDA-MB-436 [23]; 0.1 nM): 98.4% and 105%; normalised viability (MDA-MB-453; 0.1 nM): 99.7% and 100%; normalised viability (MDA-MB-468 [24]; 0.1 nM): 94.7% and 98.5%; normalised viability (MFM-223 [25]; 0.1 nM): 99.6% and 109%; normalised viability (SK-BR-3 [26]; 0.1 nM): 94.2% and 93.7%
